# In ChEMBL document CHEMBL1212713, “Molecular docking and ligand specificity in fragment-based inhibitor discovery” (Nat Chem Biol, 2009):
# Activity calls are given as the source filed them.
# Assay: Inhibition of beta lactamase CTX-M assessed as hydrolysis of beta lactam by spectrometry analysis
row,Structure (SMILES),Ki
1,O=C1C=C(S(=O)(=O)O)c2ccccc2C1=O,1000 µM
2,c1ccc(COc2cccc(-c3nn[nH]n3)c2)cc1,1000 µM
3,O=C(O)CN1C(=O)O[C@@H](c2ccccc2)C1=O,700 µM
4,Cn1cc(C(=O)Nc2cccc(-c3nn[nH]n3)c2)c2ccccc21,10 µM
5,O=C(Nc1cccc(-c2nn[nH]n2)c1)[C@H](Sc1ccccc1)c1ccccc1,12 µM
6,O=C1C[C@H](S(=O)(=O)O)c2ccccc2C1=O,700 µM
7,Nc1sc2c(c1-c1nn[nH]n1)CCCC2,3000 µM

# Assay: Inhibition of beta lactamase CTX-M assessed as hydrolysis of beta lactam at 250 uM by spectrometry analysis
row,Structure (SMILES),inhibition
1,CC(=O)Nc1cc(NC(C)=O)cc(C(=O)Nc2cccc(-c3nn[nH]n3)c2)c1,Active
2,Cc1nc2cc(C(=O)Nc3cccc(-c4nn[nH]n4)c3)ccc2n1-c1ccccc1,Active
3,Cn1cc(C(=O)Nc2cccc(-c3nn[nH]n3)c2)c2ccccc21,Active
4,O=C(Nc1cccc(-c2nn[nH]n2)c1)[C@H](Sc1ccccc1)c1ccccc1,Active
5,O=C(Nc1cccc(-c2nn[nH]n2)c1)c1csc2c1CCCC2,Active

# Assay: Inhibition of beta lactamase AmpC assessed as hydrolysis of beta lactam by spectrometry analysis
row,Structure (SMILES),Ki
1,O=C(O)CN1C(=O)O[C@@H](c2ccccc2)C1=O,3500 µM

# Assay: Inhibition of beta lactamase CTX-M assessed as hydrolysis of beta lactam up to 5 mM by spectrometry analysis
row,Structure (SMILES),inhibition
1,O=C(O)c1cc(=O)cc2n1CCNC2=O,inactive
2,CCCOc1ccc([C@H](CC(=O)O)NC(=O)c2ccc(F)cc2)cc1,inactive
3,O=C(O)[C@H]1CC(=O)N(C2CCCC2)C1,inactive
4,Cc1onc(C(N)=O)c1C(=O)Nc1nccs1,inactive
5,O=C(O)[C@H]1[C@H](C(=O)NCCO)[C@H]2C=C[C@H]1C2,inactive
6,Cc1ccc(NC(=O)CSc2nnc(CCC(=O)O)c(=O)[nH]2)cc1,inactive
7,O=C(O)/C=C/c1ccc(O)cc1,inactive
8,O=C(O)c1ccc(Cl)c(N2C(=O)c3ccccc3C2=O)c1,inactive
9,CC(=O)Nc1ccc(Sc2ccccc2C(=O)O)c(C(=O)O)c1,inactive
10,Cc1cc(C(=O)NCc2oc(C(C)(C)C)cc2C(=O)O)c(C)o1,inactive
11,Cc1ccc(-n2nc(C(N)=O)c(=O)cc2C)cc1,inactive
12,Cc1ccc(NC(=O)[C@H]2CCC(=O)N2)c(C)c1,inactive
13,O=C(O)c1cn(S(=O)(=O)c2ccccc2)c2ccccc12,inactive
14,O=C(O)C[C@H](C(=O)NCc1ccccc1)c1ccccc1,inactive
15,Cc1cc(C)cc(NC(=O)N(CCC(=O)O)Cc2ccccc2)c1,inactive
16,O=C(Nc1nncs1)c1ccccc1F,inactive
17,Cc1ccc(N[C@H](CC(=O)c2ccccc2)C(=O)O)cc1C,inactive
18,O=C(O)c1ccc(=O)oc1,inactive
19,O=C1NC(=O)[C@H](Nc2ccccc2C(=O)O)S1,inactive
20,C[C@H]1Cc2ccccc2N1C(=O)CSc1nnnn1C1CCCC1,inactive
21,Cc1ccoc1C(=O)NCc1occc1C(=O)O,inactive
22,O=C(O)Cc1ccccc1O,inactive
23,O=C(O)[C@@H]1C[C@@H](C(=O)O)N1,inactive
24,O=C(O)c1cnc(O)cc1O,inactive

row,Structure (SMILES),inhibition
1,O=CNc1ccccc1C(=O)O,inactive
2,Cc1cc(C)cc(N2C[C@@H](C(=O)O)CC2=O)c1,inactive
3,O=C(O)c1ccnc([C@@H]2CCCCC2=O)c1,inactive
4,Cc1oncc1C(=O)O,inactive
5,CC(=O)Nc1sccc1C(=O)O,inactive
6,O=C(O)c1ccc(=O)[nH]n1,inactive
7,O=C(Nc1nncs1)c1ccccc1O,inactive
8,O=C(O)C[C@H](NO)c1ccccc1,inactive
9,CC(=O)c1c(O)c(C(=O)O)c(C)oc1=O,inactive
10,O=C(O)C[C@@H]1NC(=O)[C@H](Cc2ccccc2)NC1=O,inactive
11,Cc1oc(S(=O)(=O)N2CCCCC2)cc1C(=O)O,inactive
12,O=C(O)c1cccc(S(=O)(=O)Nc2ccccn2)c1,inactive
13,CS(=O)(=O)c1cccc(C(=O)O)c1,inactive
14,Cc1cc(C)c2nc(CC(=O)O)[nH]c2c1,inactive
15,O=C(O)c1cccc(-c2nc3ccccc3[nH]2)c1,inactive
16,N#Cc1ccsc1NC(=O)c1ccccn1,inactive
17,NS(=O)(=O)c1cccc(C(=O)O)c1,inactive
18,CC(=O)Nc1nc(C(=O)O)cs1,inactive
19,O=C(O)Cn1cnc2ccccc21,inactive
20,O=C(O)c1n[nH]c2c1CCC2,inactive
21,Cc1ccc(NC(=O)/C=C/C(=O)O)cc1,inactive
22,CCOC(=O)c1c(C(=O)O)[nH]c(C(=O)OCc2ccccc2)c1C,inactive
23,O=C(O)c1cccc(S(=O)(=O)Nc2ccccc2O)c1,inactive
24,Cc1cc(C(=O)Nc2ccc(CC(=O)O)cc2)c(C)o1,inactive

row,Structure (SMILES),inhibition
1,O=C(O)c1c[nH]c(=O)[nH]c1=O,inactive
2,O=C(CC1=NO[C@H](c2ccccc2O)N1)N1CCCC1,inactive
3,O=C(O)Cc1ccc(C(=O)c2cccs2)s1,inactive
4,CC(=O)Nc1ccc(OS(=O)(=O)c2cccc(C(=O)O)c2)cc1,inactive
5,C[C@@H](Oc1cc(O)c2c(=O)cc(-c3ccccc3)oc2c1)C(=O)O,inactive
6,O=C1C=CC(=O)C(c2cccc(C(=O)O)c2)=C1,inactive
7,O=C(O)C[C@@H]1C(=O)NC(=S)N1c1ccccc1,inactive
8,CC(=O)NCC(=O)O,inactive
9,O=C(O)[C@@H](Cc1ccco1)P(=O)(O)CN1CCOCC1,inactive
10,O=C(O)c1cc(=O)c2cc(F)ccc2o1,inactive
11,O=C(O)/C=C/c1ccc(O)c(O)c1,inactive
12,O=C(O)CC(=O)Nc1ccccc1,inactive
13,Cc1ccccc1C(=O)N[C@@H](C)C(=O)O,inactive
14,O=C1C=CC(=O)[C@@H]2CC=C[C@@H](C(=O)O)[C@H]12,inactive
15,COc1ccc(C(=O)O)cc1S(=O)(=O)N1CCCCCC1,inactive
16,Cc1[nH]c(C(=O)O)c(C)c1[C@H](C)O,inactive
17,CC(C)(C)c1ccc([C@@H](CC(=O)O)NC(=O)c2ccccc2F)cc1,inactive
18,CC(=O)C1=C(O)C(O)N([C@@H](C)C(=O)O)[C@H]1c1ccccc1 (some centres not stated),inactive
19,C=C1C(=O)OC=C1C(=O)O,inactive
20,O=C(O)c1sc(C(=O)O)c(-c2ccco2)c1-c1ccco1,inactive
21,O=C(O)c1cccc(OCc2cn3ccccc3n2)c1,inactive
22,O=C(O)[C@@H]1C[C@H]1C(=O)N1CCc2ccccc21,inactive
23,O=C(O)CN1C(=O)c2ccc(F)cc2C1=O,inactive
24,O=C(O)CSc1nc(O)cc(O)n1,inactive

row,Structure (SMILES),inhibition
1,C[C@H](NC(=O)c1ccccc1Cl)C(=O)O,inactive
2,Cc1cc(O)nc(O)c1C(=O)O,inactive
3,C[C@@H](NC(=O)CNC(=O)CN)C(=O)O,inactive
4,O=C(O)c1cccc(COc2ccc(CO)cc2)c1,inactive
5,O=C(O)c1ccccc1N[C@H](C(=O)O)c1ccccc1,inactive
6,C=C(CC)N/N=C1\NC(=O)[C@H](CC(=O)O)S1,inactive
7,O=C(O)CNC(=O)c1cccc2ccccc12,inactive
8,O=C(O)C[C@@H](NC(=O)c1ccccc1F)c1ccc2c(c1)OCO2,inactive
9,O=C(O)[C@H]1C[C@H](O)CN1Cc1ccccc1,inactive
10,O=C1C[C@H](C(=O)O)c2ccccc21,inactive
11,CCC(=O)Nc1ccccc1C(=O)C(=O)O,inactive
12,O=C(O)c1ccc(Cl)c(N2CCCC2=O)c1,inactive
13,C[C@@H]1C[C@H](C)CN(S(=O)(=O)c2cccc(C(=O)O)c2)C1,inactive
14,O=C(O)c1cccc(N2C(=O)c3ccc(Br)cc3C2=O)c1,inactive
15,Cc1ccc(C(=O)NCC(=O)O)s1,inactive
16,O=C(O)C1CC(O)CN1 (configuration not stated),inactive
17,O=C(O)[C@@H]1C(=O)NC[C@H]1c1ccccc1,inactive
18,O=C(O)[C@@H]1CNC(Cc2ccc(Cl)cc2)=N1,inactive
19,O=C1C=C(O)[C@@H](C(=O)O)[C@H](c2ccccc2)C1,inactive
20,C[C@H]1CCc2n[nH]c(C(=O)O)c2C1,inactive
21,O=C(O)Cc1cc(=O)[nH]c2ccccc12,inactive
22,O=C(O)c1ccccc1C(=O)c1ccc2c(c1)CCC2,inactive
